The record followed here is patent US20250034216A1, “STEREOSELECTIVE COVALENT LIGANDS FOR ONCOGENIC AND IMMUNOLOGICAL PROTEINS” (The Scripps Research Institute, priority 2021, published 2025).

In assay [1] the target is PSME1 and PSME2 (PA28 complex) (Homo sapiens, UniProt Q06323). Nature of the assay: SEC-MS elution profile. It is filed as cell-based. Also on record: endogenous in cells; host or cells: 22Rv1. The following applies: 22Rv1 cells, 20 μM, 3 h. The method, then:
Sample preparation: Cells (adherent: 15 cm dishes, suspension: 2 million cells/mL) were treated with electrophilic probes in situ for indicated times and concentrations (elaborated fragments: 20 μM, 3 h), washed with ice-cold PBS, and flash frozen in liquid nitrogen. Cell pellets were lysed by sonication (8 pulses, 40% power) in 600 μL ice-cold PBS supplemented with cOmplete protease inhibitors (1 tablet/10 mL of PBS), ultracentrifuged for 20 min at 100,000 g, then normalized to a standardized concentration (typically 1.5 to 2.5 mg/mL). Clarified lysate was injected into a Superdex 200 Increase 10/300 GL column attached to an AKTA pure FPLC system. Proteins were fractionated using an isocratic gradient (PBS) running at 0.5 mL/min into 5 fractions 2 mL wide, beginning at 8 mL and ending at 18 mL. Eluate was collected into 15 mL tubes containing 12 mL of acetone at 4C. After completion of one set of 5 fractions, the above protocol was repeated a second time for the remaining 5 fractions. Proteins were precipitated overnight at −20 C, then spun at 4500 g for 20 minutes, yielding a white protein pellet. Acetone/PBS mixture was decanted off the pellets, which were dried at room temperature and then resuspended in 125 μL of 8 M urea, 10 mM DTT in 100 mM EPPS for 15 minutes at 65 degrees, followed by probe sonication to complete resuspension. 6.25 μL of 500 mM iodoacetamide was added to samples for alkylation (30 minutes, 37 C), followed by dilution with 370 μL of 100 mM EPPS, and addition of 2 μg trypsin per fraction, and digestion overnight at 37 C. 70 μL of tryptic digest was aliquoted into a clean microcentrifuge tube, followed by 30 μL of dry acetonitrile and 4.5 μL (5 mg/256 μL) of TMT tag in dry acetonitrile. Samples were labeled at room temperature for 75 minutes, then quenched with 6 μL of 5% hydroxylamine for 15 minutes and acidified with 5 μL of formic acid. The set of 10 samples were then combined into a single tube and evaporated by speed vac. Samples were then desalted and fractionated before analysis by mass spectrometry.
Data processing: Fractional distributions for each peptide-spectra match with a total TMT reporter ion intensity were calculated by dividing the reporter ion intensity for each TMT channel by the summed intensity across the 5 TMT channels corresponding to a single treatment condition (Equation 1). Protein-level SEC elution profiles were then generated by averaging together all unique peptides with a summed reporter ion intensity >5,000. Two unique peptide sequences were required per-protein. Bar graph elution profiles are represented as the mean±standard error of the mean across all replicates. Euclidean distances (SE shift scores, Equation 2) were calculated using the average elution profile for each protein across replicates, combined by treatment condition and cell line. Figures reporting mean elution times used Equation 3 for calculation.
Filtering of SEC-MS data: Replicates were combined based on cell line and treatment condition (probe, concentration, duration) by averaging SEC elution profiles for each protein across all experiments. A coefficient of variation (CV) filter was applied by taking the average the per-fraction CV across all 5 fractions. Proteins with a CV≥0.7 were removed from analysis.

The test system of assay [2] is DDX39A_C86. In words: IA-DTB cysteine engagement. Format: binding, human. The settings on record: 22Rv1 cells, 20 μM probe, 1 h, relative to DMSO. The method, then:
Sample preparation: Cells (adherent: 15 cm dishes, suspension: 2 million cells/mL) were treated with electrophilic probes in situ for indicated times and concentrations, washed with ice-cold PBS, and flash frozen in liquid nitrogen. Cell pellets were lysed by sonication (8 pulses, 40% power) in 500 μL ice-cold PBS supplemented with cOmplete protease inhibitors (1 tablet/10 mL of PBS). Whole cell lysates protein content was measured using a standard DC protein assay (Bio-Rad) and 500 μL (2 mg/mL protein content) were treated with 5 μL of 10 mM 1A-DTB (in DMSO) for 1 h at ambient temperature with occasional vortexing. Samples were methanol-chloroform precipitated with the addition of 500 μL ice-cold MeOH and 200 μL CHCl3, vortexed, and centrifuged (10 min, 10,000 g). Without disrupting the protein disk, both top and bottom layers were aspirated and the protein disk was washed with 1 mL ice-cold MeOH and centrifuged (10 min, 10,000 g). The pellets were allowed to air dry, and then re-suspended in 90 μL buffer (9 M urea, 10 mM DTT, 50 mM TEAB pH 8.5). Samples were reduced by heating at 65 C for 20 minutes and water bath sonicated as needed to resuspend the protein pellets, followed by alkylation via addition of 10 μL (500 mM) iodoacetamide and incubated at 37 C for 30 min with shaking. Samples were briefly centrifuged, and probe sonicated once more to ensure complete resuspension, and then diluted with 300 μL buffer (50 mM TEAB pH 8.5) to reach final concentration of 2 M urea. Trypsin (4 μL of 0.25 μg/μL in trypsin resuspension buffer with 25 mM CaCl2)) was added to each sample and digested at 37 C for 2 h to overnight. Digested samples were then diluted with 300 μL wash buffer (50 mM TEAB pH 8.5, 150 mM NaCl, 0.2% NP-40) containing streptavidin-agarose beads (50 μL of 50% slurry in wash buffer) and were rotated at room temperature for 2 hours. Enriched samples were pelleted by centrifugation (2000 g, 2 min) and transferred to BioSpin columns and washed (3×1 mL wash buffer, 3×1 mL PBS, 3×1 mL water). Enriched peptides were eluted by 300 μL 50% acetonitrile with 0.1% formic acid and eluate was evaporated to dryness via speedvac. IA-DTB labeled and enriched peptides were resuspended in 100 μL EPPS buffer (200 mM, pH 8.0) with 30% acetonitrile, vortexed, and water bath sonicated. Samples were TMT labeled with 3 μL of corresponding TMT tag (5 mg tag resuspended in 256 μL acetonitrile), vortexed, and incubated at room temperature for 1 hour. […]
Data processing: Cysteine engagement ratios (probe vs DMSO) were calculated for each peptide-spectra match by dividing each TMT reporter ion intensity by the average intensity for the channels corresponding to DMSO treatment. […]

PSME1 and PSME2 (PA28 complex), sequence (Q06323 whole entry, the tested form may be a part, one chain of several): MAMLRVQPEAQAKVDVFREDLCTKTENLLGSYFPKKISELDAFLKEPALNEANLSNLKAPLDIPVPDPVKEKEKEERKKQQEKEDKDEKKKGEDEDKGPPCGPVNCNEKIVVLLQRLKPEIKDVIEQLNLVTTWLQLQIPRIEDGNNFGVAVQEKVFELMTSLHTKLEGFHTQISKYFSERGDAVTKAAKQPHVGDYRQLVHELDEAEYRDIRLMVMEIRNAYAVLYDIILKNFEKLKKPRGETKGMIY

For the compound `CC#CC(=O)N1C[C@H](c2ccc(Br)cc2)[C@@H]1C(=O)Nc1cccc2cccnc12` [MY-45B, (2R,3S)-3-(4-bromophenyl)-1-(but-2-ynoyl)-N-(quinolin-8-yl)azetidine-2-carboxamide], the “SEC migration shift of PSME1 and PSME2” value in assay [1] is “caused the expected SEC migration shifts”.

Turning to `C=CC(=O)N1C[C@H](c2ccc(Br)cc2)[C@@H]1C(=O)Nc1cccc2cccnc12` [MY-1B, (2R,3S)-1-acryloyl-3-(4-bromophenyl)-N-(quinolin-8-yl)azetidine-2-carboxamide], in assay [2], the “% engagement DDX39A_C86” value is listed as 37%. The “SEC migration shift of PSME1 and PSME2” value in assay [1] is given as “decreased size shift”. As to `C=CC(=O)N1C[C@H](c2ccc(Br)cc2)[C@H]1C(=O)Nc1cccc2cccnc12` [MY-3B, (2S,3S)-1-acryloyl-3-(4-bromophenyl)-N-(quinolin-8-yl)azetidine-2-carboxamide], in assay [2], the “% engagement DDX39A_C86” value worked out at 67.5%. Moreover, the “SEC migration shift of PSME1 and PSME2” value in assay [1] was “None of the other azetidine acrylamide stereoisomers”.

On to `C=CC(=O)N1C[C@H](c2ccc(Br)cc2)[C@H]1C(=O)Nc1cccc2cccnc12` [MY-3A, (2S,3S)-1-acryloyl-3-(4-bromophenyl)-N-(quinolin-8-yl)azetidine-2-carboxamide], for which the “% engagement DDX39A_C86” value in assay [2] is listed as 23.5%. Moreover, the “SEC migration shift of PSME1 and PSME2” value in assay [1] is listed as “None of the other azetidine acrylamide stereoisomers”. `C=CC(=O)N1C[C@@H](c2ccc(Br)cc2)[C@H]1C(=O)Nc1cccc2cccnc12` [MY-1A, (2S,3R)-1-acryloyl-3-(4-bromophenyl)-N-(quinolin-8-yl)azetidine-2-carboxamide]: the “% engagement DDX39A_C86” value in assay [2] was 44.5%. The “SEC migration shift of PSME1 and PSME2” value in assay [1] is given as “None of the other azetidine acrylamide stereoisomers”.
